What all share (assay): relative viability (nuclei count vs DMSO), 5 days (fraction); higher = more cells survive
Compound in the assay “CX-5461 + Foretinib”: Cc1cnc(CNC(=O)c2c(=O)c3ccc(N4CCCN(C)CC4)nc3n3c2sc2ccccc23)cn1 [CX-5461] + COc1cc2c(Oc3ccc(NC(=O)C4(C(=O)Nc5ccc(F)cc5)CC4)cc3F)ccnc2cc1OCCCN1CCOCC1 [Foretinib] (partner 0.25 µM)
The essentials: (§1)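 Relative viability was taken as the ratio of nuclei in treated wells to nuclei in vehicle wells. Lung cancer cell lines in 1536-well plates received compounds by pin tool one day after seeding, either one drug alone or a fixed anchor-drug dose plus five library-drug doses (not always all listed) in √10 steps. Nuclei were counted on 4× images after 5 days of treatment, and values are medians of duplicate plates.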

Compound in the assay “CX-5461 + Decitabine”: Cc1cnc(CNC(=O)c2c(=O)c3ccc(N4CCCN(C)CC4)nc3n3c2sc2ccccc23)cn1 [CX-5461] + Nc1ncn([C@H]2C[C@H](O)[C@@H](CO)O2)c(=O)n1 [Decitabine] (partner 2 µM)
The essentials:
as §1

Compound in the assay “IMD-0354 + Navitoclax”: O=C(Nc1cc(C(F)(F)F)cc(C(F)(F)F)c1)c1cc(Cl)ccc1O [IMD-0354] + CC1(C)CCC(c2ccc(Cl)cc2)=C(CN2CCN(c3ccc(C(=O)NS(=O)(=O)c4ccc(N[C@H](CCN5CCOCC5)CSc5ccccc5)c(S(=O)(=O)C(F)(F)F)c4)cc3)CC2)C1 [Navitoclax] (partner 0.5 µM)
The essentials: as §1

Compound in the assay “IMD-0354 + Decitabine”: O=C(Nc1cc(C(F)(F)F)cc(C(F)(F)F)c1)c1cc(Cl)ccc1O [IMD-0354] + Nc1ncn([C@H]2C[C@H](O)[C@@H](CO)O2)c(=O)n1 [Decitabine] (partner 2 µM)
The essentials:
as §1

Drawing on the supplement of paper PMC10307832, this text covers relative viability for seven cell lines.

With PC-3 [JPC-3], the relative viability in the assay with CX-5461 + Foretinib (first compound 0.01 µM) stood at 1.07; with CX-5461 + Foretinib (first compound 0.03162 µM), 1.06; with CX-5461 + Foretinib (first compound 0.1 µM), 0.984; with CX-5461 + Foretinib (first compound 0.3162 µM), 0.986; with CX-5461 + Foretinib (first compound 1 µM) it was 1.01; in the assay with CX-5461 + Decitabine (first compound 0.01 µM), 0.801. The relative viability in the assay with CX-5461 + Decitabine (first compound 0.1 µM) was found to be 0.842; with CX-5461 + Decitabine (first compound 0.3162 µM), 0.801; with CX-5461 + Decitabine (first compound 1 µM), 0.77; with IMD-0354 + Navitoclax (first compound 0.04 µM), 0.712; with IMD-0354 + Navitoclax (first compound 0.1265 µM) it was 0.823; with IMD-0354 + Navitoclax (first compound 0.4 µM) it was 0.638. In addition, the relative viability with IMD-0354 + Navitoclax (first compound 1.265 µM) was 0.527; with IMD-0354 + Navitoclax (first compound 4 µM), 0.264; with IMD-0354 + Decitabine (first compound 0.04 µM), 0.984; in the assay with IMD-0354 + Decitabine (first compound 0.1265 µM), 0.813; with IMD-0354 + Decitabine (first compound 0.4 µM), 0.756; with IMD-0354 + Decitabine (first compound 1.265 µM), 0.481. The relative viability with IMD-0354 + Decitabine (first compound 4 µM) stood at 0.336.

For PC-14, the relative viability with CX-5461 + Foretinib (first compound 0.01 µM) was 1; with CX-5461 + Foretinib (first compound 0.03162 µM), 1.04; with CX-5461 + Foretinib (first compound 0.1 µM), 1.04; with CX-5461 + Foretinib (first compound 0.3162 µM), 0.962; in the assay with CX-5461 + Foretinib (first compound 1 µM) it was 0.887; with CX-5461 + Decitabine (first compound 0.01 µM) it was 0.246. In addition, the relative viability with CX-5461 + Decitabine (first compound 0.03162 µM) came out at 0.202; with CX-5461 + Decitabine (first compound 0.1 µM), 0.152; in the assay with CX-5461 + Decitabine (first compound 0.3162 µM), 0.204; with CX-5461 + Decitabine (first compound 1 µM), 0.114; with IMD-0354 + Navitoclax (first compound 0.04 µM) it was 1.04; with IMD-0354 + Navitoclax (first compound 0.1265 µM), 0.937. Also, the relative viability in the assay with IMD-0354 + Navitoclax (first compound 0.4 µM) came out at 0.425; with IMD-0354 + Navitoclax (first compound 1.265 µM), 0.192; with IMD-0354 + Navitoclax (first compound 4 µM), 0.103; in the assay with IMD-0354 + Decitabine (first compound 0.04 µM), 0.249; in the assay with IMD-0354 + Decitabine (first compound 0.1265 µM) it was 0.22; with IMD-0354 + Decitabine (first compound 0.4 µM), 0.142. For the same cell line, the relative viability with IMD-0354 + Decitabine (first compound 1.265 µM) came out at 0.0934; with IMD-0354 + Decitabine (first compound 4 µM), 0.0785.

On to RERF-LC-KJ, for which the relative viability with CX-5461 + Foretinib (first compound 0.01 µM) was 0.893; with CX-5461 + Foretinib (first compound 0.03162 µM), 0.964; with CX-5461 + Foretinib (first compound 0.1 µM), 0.998; with CX-5461 + Foretinib (first compound 0.3162 µM), 0.765; in the assay with CX-5461 + Foretinib (first compound 1 µM) it was 0.815; in the assay with CX-5461 + Decitabine (first compound 0.01 µM), 0.686. Besides, the relative viability with CX-5461 + Decitabine (first compound 0.03162 µM) is 0.677; with CX-5461 + Decitabine (first compound 0.1 µM), 0.381; with CX-5461 + Decitabine (first compound 0.3162 µM), 0.528; with CX-5461 + Decitabine (first compound 1 µM), 0.41; with IMD-0354 + Navitoclax (first compound 0.04 µM), 0.843; with IMD-0354 + Navitoclax (first compound 0.1265 µM), 1.1. For the same cell line, the relative viability with IMD-0354 + Navitoclax (first compound 0.4 µM) is 0.496; with IMD-0354 + Navitoclax (first compound 1.265 µM) it was 0.109; with IMD-0354 + Navitoclax (first compound 4 µM), 0.228; with IMD-0354 + Decitabine (first compound 0.04 µM) it was 0.901; with IMD-0354 + Decitabine (first compound 0.1265 µM), 0.64; with IMD-0354 + Decitabine (first compound 0.4 µM), 0.493. The figures for the relative viability in the assay with IMD-0354 + Decitabine (first compound 1.265 µM) and in the assay with IMD-0354 + Decitabine (first compound 4 µM) were 0.183 and 0.166, respectively.

For the cell line SK-LU-1, the relative viability with CX-5461 + Foretinib (first compound 0.01 µM) was determined as 0.818; in the assay with CX-5461 + Foretinib (first compound 0.03162 µM), 0.857; with CX-5461 + Foretinib (first compound 0.1 µM), 0.736; with CX-5461 + Foretinib (first compound 1 µM), 0.326; in the assay with CX-5461 + Decitabine (first compound 0.01 µM), 0.722; in the assay with CX-5461 + Decitabine (first compound 0.03162 µM), 0.597. Moreover, the relative viability with CX-5461 + Decitabine (first compound 0.1 µM) came to 0.709; with CX-5461 + Decitabine (first compound 0.3162 µM), 0.754; with CX-5461 + Decitabine (first compound 1 µM), 0.455; with IMD-0354 + Navitoclax (first compound 0.04 µM), 1.26; with IMD-0354 + Navitoclax (first compound 0.1265 µM), 1.17; with IMD-0354 + Navitoclax (first compound 0.4 µM), 0.223. Also, the relative viability with IMD-0354 + Navitoclax (first compound 1.265 µM) amounted to 0.386; with IMD-0354 + Navitoclax (first compound 4 µM), 0.126; with IMD-0354 + Decitabine (first compound 0.04 µM) it was 0.775; with IMD-0354 + Decitabine (first compound 0.1265 µM), 0.657; in the assay with IMD-0354 + Decitabine (first compound 0.4 µM) it was 0.441; in the assay with IMD-0354 + Decitabine (first compound 1.265 µM), 0.264. In addition, the relative viability with IMD-0354 + Decitabine (first compound 4 µM) is 0.328.

Regarding SK-MES-1, the relative viability with CX-5461 + Foretinib (first compound 0.01 µM) is 1.05; with CX-5461 + Foretinib (first compound 0.03162 µM), 1.05; in the assay with CX-5461 + Foretinib (first compound 0.1 µM), 1.04; with CX-5461 + Foretinib (first compound 0.3162 µM) it was 1.08; in the assay with CX-5461 + Foretinib (first compound 1 µM), 0.838; with CX-5461 + Decitabine (first compound 0.01 µM) it was 0.379. The relative viability is 0.398 with CX-5461 + Decitabine (first compound 0.03162 µM); 0.413 with CX-5461 + Decitabine (first compound 0.1 µM); 0.394 with CX-5461 + Decitabine (first compound 0.3162 µM); 0.212 with CX-5461 + Decitabine (first compound 1 µM); 1.48 with IMD-0354 + Navitoclax (first compound 0.04 µM); 1.12 in the assay with IMD-0354 + Navitoclax (first compound 0.1265 µM). Besides, the relative viability was determined as 0.649 with IMD-0354 + Navitoclax (first compound 0.4 µM); 0.441 with IMD-0354 + Navitoclax (first compound 1.265 µM); 0.314 with IMD-0354 + Navitoclax (first compound 4 µM); 0.387 with IMD-0354 + Decitabine (first compound 0.04 µM); 0.386 with IMD-0354 + Decitabine (first compound 0.1265 µM); 0.306 with IMD-0354 + Decitabine (first compound 0.4 µM). Moreover, the relative viability worked out at 0.176 with IMD-0354 + Decitabine (first compound 1.265 µM) and 0.205 in the assay with IMD-0354 + Decitabine (first compound 4 µM).

Take SW 1573: the relative viability with CX-5461 + Foretinib (first compound 0.01 µM) came to 0.887; with CX-5461 + Foretinib (first compound 0.03162 µM), 0.83; with CX-5461 + Foretinib (first compound 0.1 µM), 0.98; in the assay with CX-5461 + Foretinib (first compound 0.3162 µM), 0.397; in the assay with CX-5461 + Foretinib (first compound 1 µM), 0.531; with CX-5461 + Decitabine (first compound 0.01 µM), 0.474. The relative viability with CX-5461 + Decitabine (first compound 0.03162 µM) stood at 0.41; with CX-5461 + Decitabine (first compound 0.1 µM), 0.114; with CX-5461 + Decitabine (first compound 0.3162 µM) it was 0.392; with CX-5461 + Decitabine (first compound 1 µM), 0.214; with IMD-0354 + Navitoclax (first compound 0.04 µM), 1.15; in the assay with IMD-0354 + Navitoclax (first compound 0.1265 µM), 0.948. In addition, the relative viability with IMD-0354 + Navitoclax (first compound 0.4 µM) is 0.421; with IMD-0354 + Navitoclax (first compound 1.265 µM) it was 0.571; with IMD-0354 + Navitoclax (first compound 4 µM), 0.102; with IMD-0354 + Decitabine (first compound 0.04 µM), 0.814; with IMD-0354 + Decitabine (first compound 0.1265 µM) it was 0.588; with IMD-0354 + Decitabine (first compound 0.4 µM), 0.245. Besides, the relative viability worked out at 0.115 with IMD-0354 + Decitabine (first compound 1.265 µM) and 0.0911 with IMD-0354 + Decitabine (first compound 4 µM).

Turning to UMC-11, the relative viability was determined as 1.02 with CX-5461 + Foretinib (first compound 0.01 µM); 1.08 with CX-5461 + Foretinib (first compound 0.03162 µM); 0.906 with CX-5461 + Foretinib (first compound 0.1 µM); 1.15 with CX-5461 + Foretinib (first compound 0.3162 µM); 0.336 with CX-5461 + Foretinib (first compound 1 µM); 0.611 in the assay with CX-5461 + Decitabine (first compound 0.01 µM). Moreover, the relative viability stood at 0.464 with CX-5461 + Decitabine (first compound 0.03162 µM); 0.497 in the assay with CX-5461 + Decitabine (first compound 0.1 µM); 0.301 with CX-5461 + Decitabine (first compound 0.3162 µM); 0.36 with CX-5461 + Decitabine (first compound 1 µM); 0.338 with IMD-0354 + Navitoclax (first compound 0.04 µM); 0.276 with IMD-0354 + Navitoclax (first compound 0.1265 µM). Besides, the relative viability with IMD-0354 + Navitoclax (first compound 0.4 µM) stood at 0.29; in the assay with IMD-0354 + Navitoclax (first compound 1.265 µM) it was 0.112; in the assay with IMD-0354 + Navitoclax (first compound 4 µM) it was 0.149; with IMD-0354 + Decitabine (first compound 0.04 µM), 0.64; with IMD-0354 + Decitabine (first compound 0.1265 µM), 0.646; with IMD-0354 + Decitabine (first compound 0.4 µM), 0.522. The relative viability was 0.174 with IMD-0354 + Decitabine (first compound 1.265 µM) and 0.176 with IMD-0354 + Decitabine (first compound 4 µM).
